Experimental data as given in article PMC9014845 (Clinical cancer research : an official journal of the …, 2019).

Tested on: patients with advanced solid tumors harboring FGFR1–3 gene alterations
Assay: Phase I dose-escalation: safety/tolerability
Type: in vivo, human

Substance: Debio 1347
- TEAE: Back pain (150 mg (n=3), all grades): 1 (33) Number (%) of patients
- TEAE: Blurred vision (150 mg (n=3), all grades): 0 Number (%) of patients
- TEAE: Constipation (150 mg (n=3), all grades): 1 (33) Number (%) of patients
- TEAE: Creatinine increased (in blood) (150 mg (n=3), all grades): 0 Number (%) of patients
- TEAE: Decreased appetite (150 mg (n=3), all grades): 1 (33) Number (%) of patients
- TEAE: Diarrhea (150 mg (n=3), all grades): 1 (33) Number (%) of patients
- TEAE: Dry eye (150 mg (n=3), all grades): 1 (33) Number (%) of patients
- TEAE: Dry mouth (150 mg (n=3), all grades): 1 (33) Number (%) of patients
- TEAE: Dry skin (150 mg (n=3), all grades): 1 (33) Number (%) of patients
- TEAE: Dysgeusia (150 mg (n=3), all grades): 2 (67) Number (%) of patients
- TEAE: Dyspnea (150 mg (n=3), all grades): 1 (33) Number (%) of patients
- TEAE: Edema peripheral (150 mg (n=3), all grades): 1 (33) Number (%) of patients
- TEAE: Fatigue (150 mg (n=3), all grades): 0 Number (%) of patients
- TEAE: Hyperphosphatemia (150 mg (n=3), all grades): 3 (100) Number (%) of patients
- TEAE: Hypertension (150 mg (n=3), all grades): 0 Number (%) of patients
- TEAE: Hypokalemia (150 mg (n=3), all grades): 0 Number (%) of patients
- TEAE: Hypomagnesemia (150 mg (n=3), all grades): 0 Number (%) of patients
- TEAE: Mucosal inflammation (150 mg (n=3), all grades): 1 (33) Number (%) of patients
- TEAE: Myalgia (150 mg (n=3), all grades): 0 Number (%) of patients
- TEAE: Nail changes (150 mg (n=3), all grades): 3 (100) Number (%) of patients
- TEAE: Nausea (150 mg (n=3), all grades): 2 (67) Number (%) of patients
- TEAE: Stomatitis (150 mg (n=3), all grades): 1 (33) Number (%) of patients
- TEAE: Vomiting (150 mg (n=3), all grades): 1 (33) Number (%) of patients
- Patients requiring dose reduction (60 and 80 mg): 20%
- Any TEAE (all doses (n=58), all grades): 58 (100%) Number (%) of patients
- Any TEAE leading to discontinuation (all doses (n=58), all grades): 7 (12.1) Number (%) of patients
- Any TEAE leading to dose reduction (all doses (n=58), all grades): 13 (22.4) Number (%) of patients
- Any TEAE leading to treatment interruption (all doses (n=58), all grades): 26 (44.8) Number (%) of patients
- Serious TEAE (all doses (n=58), all grades): 20 (34.5) Number (%) of patients
- TEAE: ALT increased (all doses (n=58), all grades): 6 (10) Number (%) of patients
- TEAE: AST increased (all doses (n=58), all grades): 6 (10) Number (%) of patients
- TEAE: Abdominal pain (all doses (n=58), all grades): 12 (21) Number (%) of patients
- TEAE: Alopecia (all doses (n=58), all grades): 11 (19) Number (%) of patients
- TEAE: Anemia (all doses (n=58), all grades): 12 (21) Number (%) of patients
- TEAE: Back pain (all doses (n=58), all grades): 9 (16) Number (%) of patients
- TEAE: Blurred vision (all doses (n=58), all grades): 6 (10) Number (%) of patients
- TEAE: Constipation (all doses (n=58), all grades): 19 (33) Number (%) of patients
- TEAE: Creatinine increased (in blood) (all doses (n=58), all grades): 8 (14) Number (%) of patients
- TEAE: Decreased appetite (all doses (n=58), all grades): 18 (31) Number (%) of patients
- TEAE: Diarrhea (all doses (n=58), all grades): 24 (41) Number (%) of patients
- TEAE: Dry eye (all doses (n=58), all grades): 8 (14) Number (%) of patients
- TEAE: Dry mouth (all doses (n=58), all grades): 15 (26) Number (%) of patients
- TEAE: Dry skin (all doses (n=58), all grades): 10 (17) Number (%) of patients
- TEAE: Dysgeusia (all doses (n=58), all grades): 10 (17) Number (%) of patients
- TEAE: Dyspnea (all doses (n=58), all grades): 12 (21) Number (%) of patients
- TEAE: Edema peripheral (all doses (n=58), all grades): 8 (14) Number (%) of patients
- TEAE: Fatigue (all doses (n=58), all grades): 22 (38) Number (%) of patients
- TEAE: Hyperphosphatemia (all doses (n=58), all grades): 44 (76) Number (%) of patients
- TEAE: Hypertension (all doses (n=58), all grades): 7 (12) Number (%) of patients
- TEAE: Hypokalemia (all doses (n=58), all grades): 8 (14) Number (%) of patients
- TEAE: Hypomagnesemia (all doses (n=58), all grades): 7 (12) Number (%) of patients
- TEAE: Mucosal inflammation (all doses (n=58), all grades): 8 (14) Number (%) of patients
- TEAE: Myalgia (all doses (n=58), all grades): 12 (21) Number (%) of patients
- TEAE: Nail changes (all doses (n=58), all grades): 17 (29) Number (%) of patients
- TEAE: Nausea (all doses (n=58), all grades): 23 (40) Number (%) of patients
- TEAE: Stomatitis (all doses (n=58), all grades): 12 (21) Number (%) of patients
- TEAE: Vomiting (all doses (n=58), all grades): 11 (19) Number (%) of patients
- Any TEAE (all doses (n=58), grade ≥3): 37 (64%) Number (%) of patients
- TEAE: ALT increased (all doses (n=58), grade ≥3): 2 (3) Number (%) of patients
- TEAE: AST increased (all doses (n=58), grade ≥3): 1 (2) Number (%) of patients
- TEAE: Abdominal pain (all doses (n=58), grade ≥3): 1 (2) Number (%) of patients
- TEAE: Alopecia (all doses (n=58), grade ≥3): 0 Number (%) of patients
- TEAE: Anemia (all doses (n=58), grade ≥3): 7 (12) Number (%) of patients
- TEAE: Back pain (all doses (n=58), grade ≥3): 1 (2) Number (%) of patients
- TEAE: Blurred vision (all doses (n=58), grade ≥3): 0 Number (%) of patients
- TEAE: Constipation (all doses (n=58), grade ≥3): 1 (2) Number (%) of patients
- TEAE: Creatinine increased (in blood) (all doses (n=58), grade ≥3): 0 Number (%) of patients
- TEAE: Decreased appetite (all doses (n=58), grade ≥3): 1 (2) Number (%) of patients
- TEAE: Diarrhea (all doses (n=58), grade ≥3): 2 (3) Number (%) of patients
- TEAE: Dry eye (all doses (n=58), grade ≥3): 0 Number (%) of patients
- TEAE: Dry mouth (all doses (n=58), grade ≥3): 0 Number (%) of patients
- TEAE: Dry skin (all doses (n=58), grade ≥3): 0 Number (%) of patients
- TEAE: Dysgeusia (all doses (n=58), grade ≥3): 0 Number (%) of patients
- TEAE: Dyspnea (all doses (n=58), grade ≥3): 3 (5) Number (%) of patients
- TEAE: Edema peripheral (all doses (n=58), grade ≥3): 0 Number (%) of patients
- TEAE: Fatigue (all doses (n=58), grade ≥3): 0 Number (%) of patients
- TEAE: Hyperphosphatemia (all doses (n=58), grade ≥3): 12 (21) Number (%) of patients
- TEAE: Hypertension (all doses (n=58), grade ≥3): 0 Number (%) of patients
- TEAE: Hypokalemia (all doses (n=58), grade ≥3): 1 (2) Number (%) of patients
- TEAE: Hypomagnesemia (all doses (n=58), grade ≥3): 0 Number (%) of patients
- TEAE: Mucosal inflammation (all doses (n=58), grade ≥3): 1 (2) Number (%) of patients
- TEAE: Myalgia (all doses (n=58), grade ≥3): 0 Number (%) of patients
- TEAE: Nail changes (all doses (n=58), grade ≥3): 0 Number (%) of patients
- TEAE: Nausea (all doses (n=58), grade ≥3): 0 Number (%) of patients
- TEAE: Stomatitis (all doses (n=58), grade ≥3): 2 (3) Number (%) of patients
- TEAE: Vomiting (all doses (n=58), grade ≥3): 0 Number (%) of patients
- Patients in whom adverse events required dose modifications (all doses, n=58): 52%
- Patients requiring dose modifications due to AEs (all doses, n=58): 30 (52%) patients (%)
- Patients with dose modifications due to asymptomatic hyperphosphatemia (all doses, n=58): 22%
- Patients reporting blurred vision (at 30–150 mg, mainly grade 1): 6 patients
- Recommended phase 2 dose (RP2D) (dose reduction to 60 mg/day in case of intolerable toxicity): 80 mg/daily
- Maximum tolerated dose (doses up to 150 mg/day once daily, 3+3+3 design): not formally reached
- Patients with DLTs (first 4 weeks, at three dose levels, 58 treated at 10 to 150 mg/day): Five
- Number of DLTs (first 4 weeks, dry mouth/eyes, hyperamylasemia, hypercalcemia, hyperbilirubinemia, hyperphosphatemia, stomatitis): 6 DLTs
- SAEs deemed possibly study drug related (DLTs) (hyperamylasemia (80 mg), stomatitis (110 mg)): two
- Maximum severity of dermatological toxicity / nail changes (in vivo): ≤ 2 grade
- Patients with QTc prolongations of grade 1 or 2 (in vivo): Three
- Patients with nail changes requiring dose adjustment (in vivo): 3 patients
- Drug-related deaths (n=58): no death was considered drug-related
- Number of SAEs (n=58): 39 SAEs
- Patients experiencing SAEs (n=58): 20 patients
- Patients who died from disease progression (n=58): 21 patients
- Patients with highest TEAE severity grade 1 (n=58): 4 (7%) patients (%)
- Patients with highest TEAE severity grade 2 (n=58): 17 (29%) patients (%)
- Patients with highest TEAE severity grade 3 (n=58): 28 (48%) patients (%)
- Patients with highest TEAE severity grade 4 (n=58): 2 (3%) patients (%)
- Patients with highest TEAE severity grade 5 (n=58): 7 (12%) patients (%)
- Dose up to which tolerability was acceptable (oral once daily): up to 80 mg/day
- Lowest dose at which serum phosphate increases occurred (typically between 1st and 3rd week of dosing): 20 mg
- Dose reduction required (up to 40 mg): no dose reduction was required
